Where “and” joins values, the source holds several entries; their conditions need not be identical. Equal values may be shown once.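 Following 48 hours of exposure in 96-well plates, responses at five concentrations were used to interpolate endpoints linearly. At the GI50, growth is halved. TGI: total growth inhibition.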
Columns and labels:
Assay in all cases: growth of human tumour cells (NCI), 48 h
NCI-H23 lung = tested on: NCI-H23 lung
OVCAR-5 ovarian = tested on: OVCAR-5 ovarian
U251 CNS = tested on: U251 CNS
COLO 205 colon = tested on: COLO 205 colon
BT-549 breast = tested on: BT-549 breast
SR leukemia = tested on: SR leukemia
RPMI-8226 leukemia = tested on: RPMI-8226 leukemia
RXF 393 renal = tested on: RXF 393 renal
SN12C renal = tested on: SN12C renal
MALME-3M melanoma = tested on: MALME-3M melanoma
EKVX NSCLC = tested on: EKVX NSCLC
DU-145 prostate = tested on: DU-145 prostate

Row | Compound | TGI (NCI-H23 lung) | TGI (OVCAR-5 ovarian) | TGI (U251 CNS) | TGI (COLO 205 colon) | TGI (BT-549 breast) | TGI (SR leukemia) | TGI (RPMI-8226 leukemia) | TGI (RXF 393 renal) | TGI (SN12C renal) | TGI (MALME-3M melanoma) | TGI (EKVX NSCLC) | TGI (DU-145 prostate) | GI50 (RXF 393 renal)
1 | Cc1nc(N/N=C/c2ccccc2Cl)[nH]c(=O)c1CCO | > 100 µM | > 100 µM | > 100 µM | > 100 µM | > 100 µM | > 100 µM | > 100 µM | 69.9 µM | > 100 µM | 91.4 µM | > 100 µM | > 100 µM | –
2 | O=C(O)CCc1ccc2c(c1)C(=O)CC2 | > 100 µM | > 100 µM | > 100 µM | > 100 µM | > 100 µM | > 100 µM | > 100 µM | > 100 µM | > 100 µM | > 100 µM | > 100 µM | > 100 µM | –
3 | CO/N=C(\C(=O)N(C)n1cnnc1)c1csc(NC(c2ccccc2)(c2ccccc2)c2ccccc2)n1 | > 10 µM | > 10 µM | > 10 µM | > 10 µM | > 10 µM | > 10 µM | > 10 µM | > 10 µM | > 10 µM | > 10 µM | > 10 µM | > 10 µM | –
4 | CC(SC(=S)N1CCOCC1)C(=O)Nc1nnc(-c2ccccc2)o1 (centres undefined) | > 100 µM | > 100 µM | > 100 µM | > 100 µM | > 100 µM | > 100 µM | > 100 µM | > 100 µM | > 100 µM | > 100 µM | > 100 µM | > 100 µM | –
5 | Cc1ncc2c(=O)c3c(oc2n1)c1ccccc1n3Cc1ccccc1 | > 100 µM | > 100 µM | > 100 µM | > 100 µM | > 100 µM | > 100 µM | > 100 µM | > 100 µM | > 100 µM | > 100 µM | > 100 µM | > 100 µM | –
6 | COC(=O)C1OC(O[C@H]2CC[C@]3(C)[C@H]4CC=C5[C@@H]6CC(C)(C)CC[C@]6(C(=O)OC6OCC(O)C(O)C6OC6OC(C)C(OC7OCC(O)C(OC8OCC(O)C(O)C8O)C7O)C(OC7OCC(O)C(O)C7O)C6O)CC[C@@]5(C)[C@]4(C)CC[C@H]3C2(C)C)C(O)C(OC2OCC(O)C(O)C2O)C1O (some centres undefined) | > 36.7 µM and 16.2 µM | 22.5 µM and 15.8 µM | > 100 µM and 20.6 µM | 2.97 µM and 3.08 µM | 8.45 µM and 9.89 µM | 4.76 µM and 7.55 µM | 9 µM and 15.6 µM | > 67 µM and 35.6 µM | 5.4 µM and 5.69 µM | 19.4 µM and 18.3 µM | 16.3 µM and 14.8 µM | > 70.6 µM and 37.2 µM | 6.36 µM and 13.7 µM
7 | CCN(CC)c1ccc2cc(C(=O)Nc3ccccc3)c(=N)oc2c1 | – | > 100 µM | > 100 µM | > 100 µM | > 100 µM | > 100 µM | > 100 µM | > 100 µM | > 100 µM | > 100 µM | > 100 µM | > 100 µM | –
8 | NCCN1C(=O)CN=C(c2ccc(Cl)cc2)c2cc(Cl)ccc21 | 37.1 µM | 30.9 µM | 31.5 µM | 38.7 µM | 30.3 µM | 40.7 µM | 36.4 µM | 24.5 µM | 62.9 µM | 29.7 µM | 84.5 µM | 34.8 µM | –
9 | COc1ccc2cc(C(=O)O)ccc2c1OC | > 100 µM | > 100 µM | > 100 µM | > 100 µM | > 100 µM | > 100 µM | – | – | > 100 µM | > 100 µM | – | > 100 µM | –
10 | CN(C)P(=O)(Oc1ccc(CC(NC(=O)OCc2ccccc2)C(=O)OCc2ccccc2)cc1)N(C)C (centres undefined) | 28.1 µM | 38.6 µM | 28.2 µM | 42.8 µM | 32.4 µM | 24.6 µM | 15.2 µM | 32.7 µM | 31.8 µM | 32.7 µM | 32.2 µM | 29.2 µM | –
11 | O=c1[nH]nc(Cc2ccccc2)n1/N=C\c1ccccc1 | > 100 µM | > 100 µM | > 100 µM | > 100 µM | > 100 µM | > 100 µM | > 100 µM | > 100 µM | > 100 µM | > 100 µM | > 100 µM | > 100 µM | –
12 | COc1cc(OC)c2nc(C)c3c(c2c1)NCC3 | 19.9 µM | 25.6 µM | 33.4 µM | 17.1 µM | 27.5 µM | 7.08 µM | – | 18.1 µM | 18.9 µM | 24 µM | – | 59 µM | –
13 | CCCCCCOc1ccc(C(=O)NO)cc1 | 23 µM | 40.4 µM | 28.9 µM | 26 µM | 72.8 µM | 23.6 µM | 29.8 µM | 30.1 µM | 19.5 µM | 34.4 µM | 52.7 µM | 18.2 µM | –
14 | CC(=O)Nc1ccc(-c2nc3ccccc3s2)cc1I | 51.4 µM | – | > 81.6 µM | > 100 µM | 81 µM | > 100 µM | > 100 µM | 37 µM | > 100 µM | > 94.2 µM | 80.1 µM | > 51 µM | –
15 | CCN1C(=O)C(C)S/C1=N\NC(=O)CSc1nc2ccccc2c(=O)n1CC (centres undefined) | > 100 µM | > 100 µM | > 100 µM | > 100 µM | > 100 µM | > 100 µM | > 100 µM | > 100 µM | > 100 µM | > 100 µM | > 100 µM | > 100 µM | –
16 | CC(NC(=O)c1ccccc1)NC(=O)C(C)C(=O)Nc1ccccc1 (centres undefined) | > 100 µM | > 100 µM | > 100 µM | > 100 µM | > 100 µM | > 100 µM | > 100 µM | > 100 µM | > 100 µM | > 100 µM | > 100 µM | > 100 µM | –
17 | CC(=O)CSc1c(-c2ccccc2)c(=O)n(-c2ccccc2)c(=S)n1-c1ccccc1 | > 100 µM | > 100 µM | > 100 µM | > 100 µM | > 100 µM | > 100 µM | > 100 µM | – | > 100 µM | > 100 µM | > 100 µM | > 100 µM | –
18 | Nc1cc(N2CCCC2)nc(=O)n1-c1ccccc1 | > 100 µM | > 100 µM | > 100 µM | > 100 µM | > 100 µM | > 100 µM | > 100 µM | – | > 100 µM | > 100 µM | > 100 µM | > 100 µM | –
19 | COc1cccc2c1OC(c1ccc(C#N)cc1)C([N+](=O)[O-])=C2 (centres undefined) | 3.25 µM | 3.72 µM | 3.56 µM | 3.15 µM | 2.85 µM | 3.11 µM | – | 3.12 µM | 4.37 µM | 2.97 µM | 18.9 µM | 9.39 µM | –

— PubChem BioAssay (NCI)
